Data on 16 molecules can be found in PubChem BioAssay (NCI).

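These data come from cells grown in 96-well plates and exposed to compound for 48 hours at five concentrations. TGI: concentration producing complete growth inhibition.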

Among the test systems are NCI-H460 lung; HOP-92 NSCLC; M14 melanoma; ACHN renal; COLO 205 colon; MALME-3M melanoma; HL-60(TB) leukemia; A498 renal; MDA-N; T-47D breast.
Test in all cases: NCI-60 cell line screen, 48 h

For `NC1=NS(=O)(=O)N=C(N)C1=Cc1ccc([N+](=O)[O-])o1`, the TGI with NCI-H460 lung was determined as 35.9 µM; in the assay with HOP-92 NSCLC, 26.7 µM; in the assay on M14 melanoma, 26.9 µM; in the assay on ACHN renal, 30.6 µM; in the assay with COLO 205 colon, 29.1 µM; in the assay on MALME-3M melanoma it was 29.7 µM. In the assay with HL-60(TB) leukemia, this molecule displayed a TGI of over 100 µM.
As for `C=CCc1c(O)c2ccccc2[nH]c1=O`, the TGI in the assay on A498 renal, in the assay on NCI-H460 lung, with MDA-N, in the assay with HOP-92 NSCLC, in the assay with ACHN renal and in the assay with COLO 205 colon was over 100 µM each time. Also, the TGI in the assay with MALME-3M melanoma and in the assay with HL-60(TB) leukemia was over 100 µM each time.
For the molecule `COc1cc(C2C(Cl)C(=O)N2c2ccc(Br)cc2)cc(I)c1O` (stereo unspecified), the TGI in the assay with A498 renal, in the assay with NCI-H460 lung, in the assay with MDA-N, with T-47D breast, in the assay on M14 melanoma and in the assay on ACHN renal was over 100 µM throughout. Besides, the TGI with COLO 205 colon and with HL-60(TB) leukemia was over 100 µM each time.
In the case of `C=C(CCOC)CCC1CCCCC(=C)C1=O` (stereo unspecified), the TGI in the assay with A498 renal, with NCI-H460 lung, in the assay on MDA-N, with T-47D breast, in the assay with M14 melanoma and in the assay on ACHN renal was over 100 µM throughout. Moreover, the TGI in the assay with COLO 205 colon, in the assay on MALME-3M melanoma and with HL-60(TB) leukemia was over 100 µM throughout.
Consider `CSc1c(C(C)=O)c(O)n(-c2ccc(Cl)cc2)c(=O)c1C#N`, for which the TGI in the assay with A498 renal was 93.5 µM; in the assay with NCI-H460 lung it was over 100 µM; with MDA-N, over 100 µM; in the assay on T-47D breast it was over 100 µM; in the assay with M14 melanoma, over 100 µM; with COLO 205 colon, 65.6 µM. The TGI in the assay with MALME-3M melanoma is over 100 µM; in the assay on HL-60(TB) leukemia it was 46.9 µM.
In the case of `CC(=O)N(C(C)=O)n1c(Cc2ccc(Cl)cc2)nn(C(C)=O)c1=O`, the TGI in the assay on A498 renal, in the assay on NCI-H460 lung, with MDA-N, in the assay on T-47D breast, in the assay on M14 melanoma and with ACHN renal was over 100 µM in each case. Further, the TGI in the assay on COLO 205 colon, in the assay on MALME-3M melanoma and with HL-60(TB) leukemia was over 100 µM throughout.
As for `CCCCCCCCCCCCC(=O)NCC(=O)NC(Cc1ccccc1)C(=O)Oc1ccc([N+](=O)[O-])cc1` (stereo unspecified), the TGI in the assay with A498 renal, with NCI-H460 lung, in the assay with MDA-N, in the assay on T-47D breast, in the assay on M14 melanoma and in the assay with ACHN renal was over 100 µM each time. For the same molecule, the TGI with COLO 205 colon is 31.9 µM; in the assay on HL-60(TB) leukemia, over 100 µM.
As to `COc1ccc(/C=N/Nc2[nH]c(=S)nc3[nH]ncc23)cc1`, the TGI in the assay with A498 renal is over 100 µM; with NCI-H460 lung, over 100 µM; with T-47D breast it was 44.2 µM; in the assay on M14 melanoma, over 100 µM; in the assay on ACHN renal it was over 100 µM; in the assay on COLO 205 colon, 47.9 µM. Also, the TGI is 99.4 µM with MALME-3M melanoma and over 100 µM in the assay on HL-60(TB) leukemia.
As for `COc1ccccc1C(=O)c1c(N2CCCCC2)c(=O)c1=O`, the TGI with A498 renal, in the assay with NCI-H460 lung, with MDA-N, in the assay on HOP-92 NSCLC, with M14 melanoma and in the assay on ACHN renal was over 100 µM throughout. Besides, the TGI with COLO 205 colon, in the assay on MALME-3M melanoma and in the assay with HL-60(TB) leukemia was over 100 µM throughout.
For the molecule `CCCCCCCCCCCCCCCCOCC(CC(F)(F)P(=O)(O)O)OC(C)=O` (stereo unspecified), the TGI in the assay on A498 renal, in the assay on NCI-H460 lung, with MDA-N, in the assay on HOP-92 NSCLC, in the assay on M14 melanoma and in the assay with ACHN renal was over 50 µM each time. Moreover, the TGI in the assay on COLO 205 colon and with MALME-3M melanoma was over 50 µM throughout.
Consider `O=C1CCSSCCC(=O)Nc2ccccc2N1`, for which the TGI in the assay with A498 renal, in the assay with NCI-H460 lung, in the assay with HOP-92 NSCLC, with T-47D breast, with M14 melanoma and with ACHN renal was over 100 µM in each case. Also, the TGI with COLO 205 colon, in the assay with MALME-3M melanoma and in the assay on HL-60(TB) leukemia was over 100 µM throughout.
As for `c1ccc(C2=NN3CN(N2)c2ccccc2OCCCOc2ccccc23)cc1`, the TGI in the assay with NCI-H460 lung, in the assay on M14 melanoma, in the assay on ACHN renal, in the assay on COLO 205 colon, in the assay with MALME-3M melanoma and in the assay on HL-60(TB) leukemia was over 100 µM each time.
`Cn1c(N)c(/C=N/NC(=O)CC#N)c(=O)n(C)c1=O`: the TGI in the assay with A498 renal, in the assay with NCI-H460 lung, in the assay on MDA-N, in the assay on T-47D breast, in the assay on M14 melanoma and with ACHN renal was over 100 µM throughout. Besides, the TGI with COLO 205 colon and with MALME-3M melanoma was over 100 µM throughout.
For the molecule `C=C[C@]1(C)CC[C@]2(C)C(CC[C@@]3(C)C2C[C@H](O)[C@H](O)[C@@]3(C)O)C1` (stereo partly specified), the TGI in the assay on A498 renal, in the assay on NCI-H460 lung, in the assay with MDA-N, in the assay on T-47D breast, in the assay with M14 melanoma and in the assay on ACHN renal was over 100 µM in each case. Besides, the TGI in the assay with COLO 205 colon, with MALME-3M melanoma and with HL-60(TB) leukemia was over 100 µM in each case.
As to `O=C1c2cc(Cl)ccc2-n2c(noc2=O)C2CSCN12` (stereo unspecified), the TGI with A498 renal, in the assay on NCI-H460 lung, with MDA-N, with T-47D breast, with M14 melanoma and in the assay with ACHN renal was over 100 µM in each case. In addition, the TGI in the assay on COLO 205 colon and in the assay on MALME-3M melanoma was over 100 µM in each case.
On to `Cc1ccc(S(=O)(=O)Nn2c(-c3ccccc3)c(C#N)c(-c3ccc([N+](=O)[O-])cc3)c(C#N)c2=O)cc1`, for which the TGI with A498 renal, in the assay on NCI-H460 lung, in the assay with MDA-N, in the assay with HOP-92 NSCLC, in the assay on M14 melanoma and with ACHN renal was over 100 µM each time. For the same molecule, the TGI with COLO 205 colon, with MALME-3M melanoma and with HL-60(TB) leukemia was over 100 µM throughout.
